Data set [1] can be described thus: Octanol:water partition coefficients. The conditions noted are these: 10 mM Tris pH 7.4; read-out: Octanol/Water Partition Coefficient ± SD (converted). The format is physicochemical. The procedure: One mg of each hypnotic was added to 10 ml of water buffered with 10 mM Tris (pH 7.4) and 0.5 ml or 1 ml of octanol. The mixture was stirred overnight and then centrifuged to more fully separate the organic and aqueous phases. The relative hypnotic concentrations in each phase (i.e. the partition coefficient) were determined by high performance liquid chromatography as described for blood.

Data set [2] relates to rats. Kind of data set: Anesthesia (LORR) in rats by IV bolus and continuous infusion. The class given is in vivo, rat. The procedure: Rats were monitored for anesthesia as assessed by loss of righting reflex (LORR) and the subsequent time to recovery from LORR. Bolus doses of 1.0 mg/kg and greater induced dose-dependent anesthesia. The minimum effective bolus anesthetic dose in rats was approximately 1 mg/kg based on LORR observations. Time to recovery from LORR was dose-dependent.
Cyclopropyl-MOC-metomidate anesthesia in rats by continuous infusion without a bolus induction dose was examined in this study. An infusion of […] induced anesthesia after approximately 3 minutes as measured by LORR. Recovery of righting reflex took approximately 4 minutes following infusion discontinuation whether the infusion was conducted for 5 or 120 minutes.
Cyclopropyl-MOC-metomidate continuous infusion studies were conducted to determine the minimum effective infusion dose required to induce anesthesia. […] When stable anesthesia was observed after 30 minutes of infusion, the infusion rate was reduced to 0.8 mg/kg/min and then to 0.6 mg/kg/min and 0.4 mg/kg/min at 30-minute intervals. Anesthesia and LORR was maintained in all rats at 0.6 mg/kg/min. […] In one rat, the infusion at 0.4 mg/kg/min was discontinued after 7 minutes due to inadequate the anesthesia. The other two rats received the full 30-minute infusion at […] with no further change. Rats recovered from LORR and resumed normal behavior within 2-6 minutes of stopping the infusion. Based on these observations, the minimum effective infusion dose rate required to maintain anesthesia was determined to be approximately 0.5 mg/kg/min. An independent assessment of “minimal immobilizing infusion rate” of cyclopropyl-MOC-metomidate in rats yielded a value of 0.89±0.18 mg/kg/min.

For data set [3], the system named is beagle dogs. As for the experimental part: A pilot study was conducted in dogs to assess anesthesia induced by cyclopropyl-MOC-metomidate continuous infusion without a bolus induction dosing. Two dogs received cyclopropyl-MOC-metomidate as a 1 mg/kg/min IV infusion without prior bolus administration.
Anesthesia induction was determined using the methods described above.
Etomidate was administered to dogs at IV bolus doses ranging from 0.25 to 2 mg/kg. Anesthesia in the dogs was measured as described above. […] The bolus dose of 2 mg/kg was adopted to induce anesthesia prior to subsequent continuous infusions.
Propofol was administered to dogs as an IV bolus dose of 5 mg/kg to induce anesthesia followed by a continuous infusion at 0.4 mg/kg/min.

For data set [4] the following is noted: in vivo.
The test system of data set [5] is 68 receptors, ion channels and transporters. Kind of data set: radioligand binding screen. The following applies: 10 μM, each radioligand.
In data set [6] the test system is rats. In words: loss of righting reflexes (LORR) assay after IV bolus.
Protocol: Adult male Sprague-Dawley rats (230-350 gm) were purchased from Charles River Laboratories (Wilmington, Mass.) and housed in the Massachusetts General Hospital Center for Comparative Medicine animal care facility. All drugs were administered through a femoral venous catheter pre-implanted by the vendor prior to animal delivery to our animal care facility.
Immediately after injection, rats were turned supine. […] A stopwatch was used to measure the duration of LORR, which was defined as the time from drug injection until the animal spontaneously righted itself.
The mark [7] stands for this setting: dogs, 4 mg/kg bolus or bolus plus 0.5 mg/kg/min for 30 or 120 minutes.

On to `COC(=O)C1(OC(=O)c2cncn2[C@H](C)c2ccccc2)CC1` [Cyclopropyl- methoxycarbonyl metomidate, cyclopropyl-methoxycarbonyl metomidate], for which, in data set [1], the logD was 2.62. In addition, the “minimum effective infusion dose rate to maintain anesthesia” value in data set [2] is “approximately 0.5 mg/kg/min”. Besides, the “recovery from LORR and normal behavior after stopping the infusion” value in data set [2] (4 mg/kg bolus then 1 to 0.4 mg/kg/min step-down infusion) is 2 to 6 min. The “minimum effective bolus anesthetic dose” value in data set [2] (IV bolus, LORR) is “approximately 1 mg/kg”. In data set [2] (bolus dose of 4 mg/kg), the “duration of anesthesia and LORR” value lay within 3 to 8 min. In addition, in data set [2] (independent assessment), the “minimal immobilizing infusion rate” value turned out to be 0.89 ± 0.18 mg/kg/min. Besides, the “recovery of righting reflex after infusion discontinuation” value in data set [2] (infusion for 5 or 120 minutes) is “approximately 4 minutes”. In addition, the “time to induction of anesthesia (LORR)” value in data set [2] (infusion of 4 mg/kg without bolus) was “approximately 3 minutes”. In addition, the “minimum effective continuous infusion dose rate (infusion MED)” value in data set [3] (dogs) was “approximately 0.5 mg/kg/min”. In data set [3] (setting [7]), the emergence from anesthesia result is recorded as “approximately 5 minutes” and the “recovery of apparently normal behavior” value was in the range of 10 to 12 min. For the same molecule, the “minimally effective anesthetic dose (MED)” value in data set [3] (dogs, IV bolus) is listed as “approximately 1 mg/kg”. This molecule yielded a duration of anesthesia in data set [3] (dogs, bolus dose of 3 or 4 mg/kg) of 3 to 6 min. Also, the “context dependence of recovery from anesthesia” value in data set [3] (dogs, bolus vs 30- or 120-minute infusion) is recorded as “context-independent”. Besides, the “anesthesia onset after initiation of infusion” value in data set [3] (two dogs, 1 mg/kg/min IV infusion without bolus) was 2.5 to 4.0 min. Besides, the “plasma concentrations associated with anesthesia” value in data set [4] lay within 200 to 3000 nM. Moreover, the “inhibition of radioligand binding” value in data set [5] was “no more than 25%”. For the same molecule, the ED50 (commonly the dose at which the effect has come halfway, by size or by number of responders) in data set [6] (Rattus norvegicus, iv, read-out: ED50 ± SD) turned out to be 0.69 ± 0.04 mg/kg. In data set [6] (rat, in vivo), the “hypnotic potency compared with methoxycarbonyl etomidate and etomidate” value was “nearly an order of magnitude higher than that of methoxycarbonyl etomidate and similar to that of etomidate”; the “in vivo duration of action compared with methoxycarbonyl etomidate and etomidate” value was “intermediate between those of methoxycarbonyl etomidate and etomidate”.

Values taken from patent US10154991B2, “Anesthetic compounds and related methods of use” (priority 2012, dated 2018).
